Consider 21 compounds from ChEMBL document CHEMBL4732143 (Eur J Med Chem, 2021).

Assay [1] addresses T1, Sphingosine kinase 2 (Homo sapiens) (UniProt Q9NRA0).
T1 sequence (whole entry): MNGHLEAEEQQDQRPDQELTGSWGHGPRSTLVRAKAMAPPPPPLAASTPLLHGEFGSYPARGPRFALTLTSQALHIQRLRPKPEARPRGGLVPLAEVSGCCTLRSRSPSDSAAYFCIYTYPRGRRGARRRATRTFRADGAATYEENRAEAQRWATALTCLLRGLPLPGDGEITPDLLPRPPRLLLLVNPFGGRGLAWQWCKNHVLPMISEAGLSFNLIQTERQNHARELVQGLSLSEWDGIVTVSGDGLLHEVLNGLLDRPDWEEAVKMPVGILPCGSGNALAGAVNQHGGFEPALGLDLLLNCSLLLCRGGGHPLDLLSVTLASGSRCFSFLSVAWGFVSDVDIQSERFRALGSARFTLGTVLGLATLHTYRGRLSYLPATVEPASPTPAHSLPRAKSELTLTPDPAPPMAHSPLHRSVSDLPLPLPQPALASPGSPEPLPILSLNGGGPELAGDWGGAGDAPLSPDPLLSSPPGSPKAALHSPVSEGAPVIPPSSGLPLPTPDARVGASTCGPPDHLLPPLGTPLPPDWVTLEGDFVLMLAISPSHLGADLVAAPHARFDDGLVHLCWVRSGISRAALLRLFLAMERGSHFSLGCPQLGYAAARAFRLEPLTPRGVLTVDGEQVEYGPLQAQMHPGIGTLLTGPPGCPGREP
The experiment in a line: Inhibition of recombinant human Sphk2 expressed in baculovirus infected Sf9 insect cells assessed as residual activity at 0.3 uM using d-erythro-sphingosine as substrate measured after 20 mins in presence of [gamma-32P]ATP by liquid scintillation counting analysis relative to control.

A further assay deals with T2, Sphingosine kinase 2 (Homo sapiens, UniProt Q9NRA0).
T2 sequence (Q9NRA0 whole entry): T1 sequence (whole entry)
The experiment in a line: Inhibition of recombinant human Sphk2 expressed in baculovirus infected Sf9 insect cells using d-erythro-sphingosine as substrate measured after 20 mins in presence of [gamma-32P]ATP by liquid scintillation counting analysis.

The target in assay [2] is T1, Sphingosine kinase 2 (Homo sapiens). Description: Inhibition of Sphk2 in human U-937 cells using FTY720 as substrate measured after 2 hrs by LC-MS analysis. The format is cell-based. As to conditions: dose 0.1-1 µM.
Assay [3] shares this target. Description: Inhibition of recombinant human Sphk2 expressed in yeast strain KYA1 assessed as increase in yeast growth measured after 24 hrs.

As for `CCCCCCCn1ccc2ccc(-c3noc([C@@H]4CCCN4C(=N)N)n3)cc21`, the Activity in assay [1] was determined as 103%.

For the compound `CCCCCCCCCCn1ccc2cc(-c3noc([C@@H]4CCCN4C(=N)N)n3)ccc21`, the Activity in assay [1] came out at 31%. Further, the Ki (as a rule, a dissociation constant, usually derived from enzyme kinetics or from competition with a known ligand) on Sphingosine kinase 2 amounted to 120 nM. For `CCCCCCCCn1ccc2ccc(-c3noc([C@@H]4CCCN4C(=N)N)n3)cc21`, the Activity in assay [1] worked out at 93%.

On to `CCCCCCCCCn1cc(-c2noc([C@@H]3CCCN3C(=N)N)n2)c2ccccc21`, for which, in assay [1], the Activity is 59%. On the same count and under the same terms, as for `CCCCCCn1ccc2cc(-c3noc([C@@H]4CCCN4C(=N)N)n3)ccc21`, the figure is 72%. As for `CCCCOc1ccc2cc(-c3noc([C@@H]4CCCN4C(=N)N)n3)ccc2c1`, the Activity in assay [1] was 95%. The Ki on Sphingosine kinase 2 stood at 980 nM.

For the compound `CCCCCCCCCCCn1cc(-c2noc([C@@H]3CCCN3C(=N)N)n2)c2ccccc21`, the Activity in assay [1] turned out to be 79%. On the same count and under the same terms, the figure for `CCCCCCCn1ccc2c(-c3noc([C@@H]4CCCN4C(=N)N)n3)cccc21` is 89%; for `CCCCCCCCCCn1ccc2c(-c3noc([C@@H]4CCCN4C(=N)N)n3)cccc21` it is 64%. As for `CCCCCCCCCn1ccc2cc(-c3noc([C@@H]4CCCN4C(=N)N)n3)ccc21`, in assay [1], the Activity worked out at 25%. Further, the inhibition entry in assay [2] and in assay [3] was “Dose-dependent effect” throughout. In addition, on Sphingosine kinase 2, the Ki was found to be 90 nM. For the compound `CCCCCCCCCCCCn1cc(-c2noc([C@@H]3CCCN3C(=N)N)n2)c2ccccc21`, the Activity in assay [1] is 46%. For the same compound, the Ki on Sphingosine kinase 2 came to 290 nM. Turning to `CCCCCCCn1cc(-c2noc([C@@H]3CCCN3C(=N)N)n2)c2ccccc21`, the Activity in assay [1] is 96%.

Regarding `CCCCCCCCn1cc(-c2noc([C@@H]3CCCN3C(=N)N)n2)c2ccccc21`, the Activity in assay [1] was determined as 73%. `CCCCCCCCCCn1cc(-c2noc([C@@H]3CCCN3C(=N)N)n2)c2ccccc21`: the Activity in assay [1] stood at 47%. The Ki on Sphingosine kinase 2 was determined as 300 nM. Consider `CCCCCCCn1ccc2cc(-c3noc([C@@H]4CCCN4C(=N)N)n3)ccc21`, for which, in assay [1], the Activity worked out at 93%. The same measure, in the same setting: the figure for `CCCCCCCCCn1ccc2ccc(-c3noc([C@@H]4CCCN4C(=N)N)n3)cc21` is 79%; for `CCCCCCCCCn1ccc2c(-c3noc([C@@H]4CCCN4C(=N)N)n3)cccc21` it is 68%; for `CCCCCCCCCn1cc(-c2noc(C[C@@H]3CCCN3C(=N)N)n2)c2ccccc21` it is 98%.

As for `CCCCCCCCn1ccc2c(-c3noc([C@@H]4CCCN4C(=N)N)n3)cccc21`, the Activity in assay [1] came out at 84%.

On to `CCCCCCCCCCn1ccc2ccc(-c3noc([C@@H]4CCCN4C(=N)N)n3)cc21`, for which the Activity in assay [1] amounted to 68%. On the same count and under the same terms, the figure for `CCCCCCCCn1ccc2cc(-c3noc([C@@H]4CCCN4C(=N)N)n3)ccc21` is 87%.
